Results on 65 compounds are retold here after publication doi:10.1101/2021.10.07.463234v2 (biorxiv, 2021).

SMILES strings stand for the structures. Structures can show the parent of a compound that is named as a salt. Bridge positions count the residues as written; N and C are the ends. Peptide text beside a SMILES is read from it.

One assay deals with SARS-CoV-2 Mac1 (Severe acute respiratory syndrome coronavirus 2, UniProt P0DTD1). Briefly: biochemical. The settings on record: 100 µM; inhibitor.
Usually %inhibition stands for how much of the control response was suppressed. Low readings indicate a weak effect, high ones a strong effect. Take `CCN(CC)CCNC(=O)c1c(C)[nH]c(/C=C2\C(=O)Nc3ccc(F)cc32)c1C` [Sunitinib]: the “%inhibition” value came out at 31.86%. As to `Nc1c2c(nc3ccccc13)CCCC2` [Tacrine HCl], the “%inhibition” value amounted to 0.07061%. For `Nc1c2c(nc3ccccc13)CCCC2` [Tacrine hydrochloride hydrate], the “%inhibition” value was determined as 12.09%. Consider `CCC[C@H](NC(=O)[C@@H]1[C@H]2CCC[C@H]2CN1C(=O)[C@@H](NC(=O)[C@@H](NC(=O)c1cnccn1)C1CCCCC1)C(C)(C)C)C(=O)C(=O)NC1CC1` [Telaprevir (VX-950)], for which the “%inhibition” value is recorded as 0%. On to `COc1cc2nc(N3CCN(C(=O)C4CCCO4)CC3)nc(N)c2cc1OC` (centres unmarked) [Terazosin HCl Dihydrate], for which the “%inhibition” value worked out at 6.293%.

Regarding `COc1cc2nc(N3CCN(C(=O)C4CCCO4)CC3)nc(N)c2cc1OC` (centres unmarked) [Terazosin HCl], the “%inhibition” value amounted to 2.055%. For the compound `CN(C/C=C/C#CC(C)(C)C)Cc1cccc2ccccc12` [Terbinafine HCl], the “%inhibition” value was 13.33%. As to `CN(C/C=C/C#CC(C)(C)C)Cc1cccc2ccccc12` [Terbinafine], the “%inhibition” value was 49.96%.

The assay is the same for the next values; noted with them: read-out: %inhibition.
A word on the inhibition: it is the relative decrease from the control value, in per cent. For the compound `COc1cc(O)c(C(=O)c2ccccc2)cc1S(=O)(=O)O` [Sulisobenzone], the inhibition at 100 µM came to 4.13%. With `COc1cc(NS(=O)(=O)c2ccc(N)cc2)nc(OC)n1` [Sulphadimethoxine], the inhibition at 100 µM came to 0%.

For the compound `CCN1CCCC1CNC(=O)c1cc(S(N)(=O)=O)ccc1OC` (centres unmarked) [Sulpiride], the inhibition at 100 µM was 0%. For the compound `CC1(C)S[C@@H]2[C@H](NC(=O)[C@H](N)c3ccccc3)C(=O)N2[C@H]1C(=O)OCOC(=O)[C@@H]1N2C(=O)C[C@H]2S(=O)(=O)C1(C)C` [Sultamicillin], the inhibition at 100 µM was found to be 8.63%. On the same count and under the same terms, as for `CCN(CC)CCNC(=O)c1c(C)[nH]c(/C=C2\C(=O)Nc3ccc(F)cc32)c1C` [Sunitinib Malate], the figure is 16.2%; as for `CC(C(=O)O)c1ccc(C(=O)c2cccs2)cc1` (centres unmarked) [Suprofen], 18%. Turning to `CNC(=O)c1ccc2cc([C@@]3(O)CCn4cncc43)ccc2c1` [TAK-700 (Orteronel)], the inhibition at 100 µM is 0%.

Regarding `C=CC[C@@H]1/C=C(\C)C[C@H](C)C[C@H](OC)[C@H]2O[C@@](O)(C(=O)C(=O)N3CCCC[C@H]3C(=O)O[C@H](/C(C)=C/[C@@H]3CC[C@@H](O)[C@H](OC)C3)[C@H](C)[C@@H](O)CC1=O)[C@H](C)C[C@@H]2OC` [Tacrolimus (FK506)], the inhibition at 100 µM was 29.6%. Turning to `CN1CC(=O)N2[C@H](c3ccc4c(c3)OCO4)c3[nH]c4ccccc4c3C[C@@H]2C1=O` [Tadalafil], the inhibition at 100 µM amounted to 20.7%. With `CC(C)OC(=O)CCC/C=C\C[C@@H]1[C@@H](/C=C/C(F)(F)COc2ccccc2)[C@H](O)C[C@@H]1O` [Tafluprost], the inhibition at 100 µM stood at 4.8%. For the compound `CC1(C)CCC(C)(C)c2cc(NC(=O)c3ccc(C(=O)O)cc3)ccc21` [Tamibarotene], the inhibition at 100 µM was 1.99%.

On to `CCOc1ccccc1OCCN[C@H](C)Cc1ccc(OC)c(S(N)(=O)=O)c1` [Tamsulosin hydrochloride], for which the inhibition at 100 µM turned out to be 0%. On to `C=CCNC1=C2C[C@@H](C)C[C@H](OC)[C@H](O)[C@@H](C)/C=C(\C)[C@H](OC(N)=O)[C@@H](OC)/C=C\C=C(/C)C(=O)NC(=CC1=O)C2=O` [Tanespimycin (17-AAG)], for which the inhibition at 100 µM was 3.81%. In the case of `CCC(=O)NC[C@@H]1C[C@H]1c1cccc2c1CCO2` [Tasimelteon], the inhibition at 100 µM is 0%. For `O=C(NS(=O)(=O)c1ccc(Br)s1)c1ccc(Cl)cc1Cl` [Tasisulam], the inhibition at 100 µM amounted to 0%. For `NCCS(=O)(=O)O` [Taurine], the inhibition at 100 µM worked out at 0%.

On to `OB1OCc2cc(F)ccc21` [Tavaborole (AN-2690)], for which the inhibition at 100 µM was determined as 0.84%. `CCOC(=O)c1ccc(C#Cc2ccc3c(c2)C(C)(C)CCS3)nc1` [Tazarotene]: the inhibition at 100 µM was found to be 0%. Turning to `C[C@]1(Cn2ccnn2)[C@H](C(=O)O)N2C(=O)C[C@H]2S1(=O)=O` [Tazobactam], the inhibition at 100 µM is 6.81%. For the compound `C[C@@H](O)[C@H]1C(=O)N2C(C(=O)OCOC(=O)C(C)(C)C)=C(SC3CN(C4=NCCS4)C3)[C@H](C)[C@H]12` [Tebipenem Pivoxil], the inhibition at 100 µM stood at 1.32%. In the case of `Cn1nnc(-c2ccc(-c3ccc(N4C[C@H](COP(=O)(O)O)OC4=O)cc3F)cn2)n1` [Tedizolid Phosphate], the inhibition at 100 µM was found to be 0%. `Cn1nnc(-c2ccc(-c3ccc(N4C[C@H](CO)OC4=O)cc3F)cn2)n1` [Tedizolid]: the inhibition at 100 µM came to 0%. Still for that read-out and setting: as for `O=c1[nH]c(=O)n(C2CCCO2)cc1F` (centres unmarked) [Tegafur (FT-207, NSC 148958)], the figure is 0%; as for `CCCCCNC(=N)N/N=C/c1c[nH]c2ccc(OC)cc12` [Tegaserod Maleate], 1.73%; as for `Cc1cn([C@@H]2C[C@@H](O)[C@H](CO)O2)c(=O)[nH]c1=O` [Telbivudine], 0%.

Regarding `CCCc1nc2c(C)cc(-c3nc4ccccc4n3C)cc2n1Cc1ccc(-c2ccccc2C(=O)O)cc1` [Telmisartan], the inhibition at 100 µM was 27.9%.

On to `CCOC(=O)[C@@H](N)Cc1ccc(-c2cc(O[C@H](c3ccc(Cl)cc3-n3ccc(C)n3)C(F)(F)F)nc(N)n2)cc1` [Telotristat Etiprate (LX 1606 Hippurate)], for which the inhibition at 100 µM was found to be 0%. With `CCOC(=O)[C@H](CCc1ccccc1)N[C@H]1CS[C@H](c2cccs2)CN(CC(=O)O)C1=O` [Temocapril HCl], the inhibition at 100 µM was 0%. Consider `Cn1nnc2c(C(N)=O)ncn2c1=O` [Temozolomide], for which the inhibition at 100 µM is 34.1%.

For `CO[C@H]1C[C@@H]2CC[C@@H](C)[C@@](O)(O2)C(=O)C(=O)N2CCCC[C@H]2C(=O)O[C@H]([C@H](C)C[C@@H]2CC[C@@H](OC(=O)C(C)(CO)CO)[C@H](OC)C2)CC(=O)[C@H](C)/C=C(\C)[C@@H](O)[C@@H](OC)C(=O)[C@H](C)C[C@H](C)/C=C/C=C/C=C/1C` [Temsirolimus (CCI-779, NSC 683864)], the inhibition at 100 µM came to 14.6%. `Cc1cc(N2CCN([C@@H]3CN[C@H](C(=O)N4CCSC4)C3)CC2)n(-c2ccccc2)n1` [Teneligliptin hydrobromide]: the inhibition at 100 µM worked out at 6.56%. In the case of `COc1cc([C@@H]2c3cc4c(cc3[C@@H](O[C@@H]3O[C@@H]5CO[C@@H](c6cccs6)O[C@H]5[C@H](O)[C@H]3O)[C@H]3COC(=O)[C@H]23)OCO4)cc(OC)c1O` [Teniposide], the inhibition at 100 µM came out at 12.8%. For `CC(C)OC(=O)[C@H](C)N[P@](=O)(CO[C@H](C)Cn1cnc2c(N)ncnc21)Oc1ccccc1` [Tenofovir Alafenamide (GS-7340)], the inhibition at 100 µM was 10.7%. On the same count and under the same terms, as for `CC(C)OC(=O)OCOP(=O)(CO[C@H](C)Cn1cnc2c(N)ncnc21)OCOC(=O)OC(C)C` [Tenofovir Disoproxil Fumarate], the figure is 0%; as for `C[C@H](Cn1cnc2c(N)ncnc21)OCP(=O)(O)O` [Tenofovir], 0%. Still for that read-out and setting: with `CN1C(C(=O)Nc2ccccn2)=C(O)c2sccc2S1(=O)=O` [Tenoxicam] the figure was 0%; with `CN1CCC(COc2cnc(-c3cccc(Cn4nc(-c5cccc(C#N)c5)ccc4=O)c3)nc2)CC1` [Tepotinib (EMD 1214063)], 0%. As for `CC(=O)CC/C=C(\C)CC/C=C(\C)CC/C=C(\C)CCC=C(C)C` [Teprenone], the inhibition at 100 µM turned out to be 30.7%. Take `CC(C)(C)NCC(O)c1cc(O)cc(O)c1` (centres unmarked) [Terbutaline Sulfate]: the inhibition at 100 µM was 0%. For `CC(C)(C)c1ccc(C(O)CCCN2CCC(C(O)(c3ccccc3)c3ccccc3)CC2)cc1` (centres unmarked) [Terfenadine], the inhibition at 100 µM worked out at 11%. In the case of `C/C(O)=C(\C#N)C(=O)Nc1ccc(C(F)(F)F)cc1` [Teriflunomide], the inhibition at 100 µM came out at 12.5%. As for `NCCCC[C@H](NC(=O)[C@@H]1CCCN1C(=O)[C@@H]1CSSC[C@H](NC(=O)CNC(=O)CNC(=O)CN)C(=O)N[C@@H](Cc2ccc(O)cc2)C(=O)N[C@@H](Cc2ccccc2)C(=O)N[C@@H](CCC(N)=O)C(=O)N[C@@H](CC(N)=O)C(=O)N1)C(=O)NCC(N)=O` [Terlipressin Acetate] (H-GGGCYFQNCPKG-NH2; disulfide 4-9), the inhibition at 100 µM amounted to 0%. Take `CC1(O)CCC(C(C)(C)O)CC1` (centres unmarked) [Terpin hydrate]: the inhibition at 100 µM is 0%. Take `CCCCCCC(=O)O[C@H]1CC[C@H]2[C@@H]3CCC4=CC(=O)CC[C@]4(C)[C@H]3CC[C@]12C` [Testosterone Enanthate]: the inhibition at 100 µM was found to be 0%.

Take `COc1cc2c(cc1OC)[C@H]1CC(=O)[C@H](CC(C)C)CN1CC2` [Tetrabenazine (Xenazine)]: the inhibition at 100 µM came to 18.7%. With `CCCCNc1ccc(C(=O)OCCN(C)C)cc1` [Tetracaine HCl], the inhibition at 100 µM stood at 9.17%.

Consider `CN(C)[C@@H]1C(=O)C(C(N)=O)=C(O)[C@@]2(O)C(=O)C3=C(O)c4c(O)cccc4[C@@](C)(O)[C@H]3C[C@@H]12` [Tetracycline HCl], for which the inhibition at 100 µM turned out to be 22.7%. Same read-out and setting: as for `c1ccc2c(c1)CCCC2C1=NCCN1` (centres unmarked) [Tetrahydrozoline HCl], the figure is 0%.

Turning to `c1ccc(C2CN3CCSC3=N2)cc1` (centres unmarked) [Tetramisole HCl], the inhibition at 100 µM is 0%. Regarding `CC(C)(CO)c1cc2cc(NC(=O)C3(c4ccc5c(c4)OC(F)(F)O5)CC3)c(F)cc2n1C[C@@H](O)CO` [Tezacaftor(VX-661)], the inhibition at 100 µM was determined as 16.1%. In the case of `O=C1CCC(N2C(=O)c3ccccc3C2=O)C(=O)N1` (centres unmarked) [Thalidomide], the inhibition at 100 µM was found to be 14%. Turning to `c1ccc2[nH]c(-c3cscn3)nc2c1` [Thiabendazole], the inhibition at 100 µM is 21.5%.

Take `Cc1ncc(C[n+]2csc(CCO)c2C)c(N)n1` [Thiamine HCl (Vitamin B1)]: the inhibition at 100 µM was found to be 0%. For `CS(=O)(=O)c1ccc([C@@H](O)[C@@H](CO)NC(=O)C(Cl)Cl)cc1` [Thiamphenicol], the inhibition at 100 µM came to 13.4%. Consider `Nc1nc2[nH]cnc2c(=S)[nH]1` [Thioguanine], for which the inhibition at 100 µM was 18.9%. On to `S=P(N1CC1)(N1CC1)N1CC1` [Thiotepa], for which the inhibition at 100 µM was 21.5%. `Cc1ccc(C(C)C)c(O)c1` [Thymol]: the inhibition at 100 µM stood at 0.387%.
